EC50 and IC50 data for 25 molecules are collected here from patent US10030016B2 (Sunesis Pharmaceuticals, Inc., priority 2009, dated 2018).

Test [1] has as its system phospho-akt (Thr308) in PC-3 cells. Put plainly: Inhibition of phospho-akt (Thr308) in PC-3 cells, MSD phospho-akt 308 ELISA kit. The test is classed as cell-based. The settings on record: 2 hours, no serum, read-out: EC50. The method, boiled down: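 PC-3 cells (15,000/well, overnight in 10% FBS medium) treated 2 h with three-fold diluted compounds in serum-free medium; DMSO high and 5 μM wortmannin low controls. Lysates captured on BSA-blocked MSD plates overnight at 4 °C, then 1 h antibody detection at RT; phospho-Akt Thr308 read by MSD electrochemiluminescence.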

For a further test, the target named is PDK1 (Homo sapiens (Human), UniProt O15530). Put plainly: PDK1 kinase assay (coupled PDK1/AKT/FAM-crosstide assay, IMAP fluorescence polarization). The class given is biochemical. In a few lines: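 Inhibition is derived by 4-parameter fitting of ΔmP from an IMAP fluorescence polarization read of FAM-crosstide (100 nM) phosphorylation. The cascade ran 30 min at 25 °C with 40 μM ATP, using insect-cell GST-PDK1 51-359 (0.75 nM) driving 10 nM unphosphorylated AKT2 140-467-PIFtide fusion.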

Setting [2] is: Homo sapiens, inhibition of P308 Akt in PC-3 cells, MSD.
[3] abbreviates: inhibition of phospo-PDK1 in vitro.
Setting [4] is: Homo sapiens, inhibition of P308 Akt in PC-3 cells using MSD.

Structures can show the parent of a compound that is named as a salt. Where two headings read alike, the source gives them in different places. Bounds are passed on as bounds.

Sequence of PDK1 (O15530 51-359): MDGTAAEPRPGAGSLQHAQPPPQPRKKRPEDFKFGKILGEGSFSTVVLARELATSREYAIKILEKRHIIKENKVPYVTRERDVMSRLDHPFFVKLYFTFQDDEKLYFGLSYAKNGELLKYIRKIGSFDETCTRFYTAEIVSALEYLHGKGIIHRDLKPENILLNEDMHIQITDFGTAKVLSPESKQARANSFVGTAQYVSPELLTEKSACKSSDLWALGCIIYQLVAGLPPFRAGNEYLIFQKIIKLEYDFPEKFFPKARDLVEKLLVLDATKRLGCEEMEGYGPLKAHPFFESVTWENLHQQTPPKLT

As to `C[C@H](NC(=O)c1cc(C#N)cnc1NCc1ccc(-c2cnc(N)c(C(=O)NCCCO)n2)cc1)c1ccc(F)cc1` [Example 209, (S)-3-amino-6-(4-((5-cyano-3-(1-(4-fluorophenyl)ethylcarbamoyl)pyridin-2-ylamino)methyl)phenyl)-N-(3-hydroxypropyl) pyrazine-2-carboxamide], the 50% effective concentration (EC50) in test [1] (inhibition of P308 Akt in PC-3 cells using MSD) is below 1000 nM. In addition, on PDK1 (inhibition of PDK1 in vitro), the half-inhibitory concentration (IC50) was below 100 nM.

Turning to `Nc1ncnc2ccc(-c3ccc(CNc4ncccc4C(=O)NCc4ccncc4)s3)cc12` [Example 3.38, 2-({[5-(4-aminoquinazolin-6-yl)thiophen-2-yl]methyl}amino)-N-(pyridin-4-ylmethyl) pyridine-3-carboxamide (TFA salt)], the EC50 in test [1] (setting [2]) is above 10000 nM. For the same molecule, the IC50 against PDK1 (setting [3]) lay in the range of 1000 to 5000 nM.

As to `Nc1ncnc2ccc(-c3nc(CNc4ncccc4C(=O)NCc4ccc(F)c(F)c4)cs3)cc12` [Ex. 6.8, 2-({[2-(4-aminoquinazolin-6-yl)-1,3-thiazol-4-yl]methyl}amino)-N-(3,4-difluoro-benzyl) pyridine-3-carboxamide], the EC50 in test [1] (setting [2]) is above 10000 nM. In addition, the 50% inhibitory concentration (IC50) on PDK1 (setting [3]) is below 100 nM.

Take `C[C@H](NC(=O)c1cccnc1NCc1ccc(-c2ccc3ncnc(N)c3c2)s1)c1ccc(F)cc1F` [Example 3.61, (S)-2-(((5-(4-aminoquinazolin-6-yl)thiophen-2-yl)methyl)amino)-N-(1-(2,4-difluorophenyl)ethyl) nicotinamide (TFA salt)]: the EC50 in test [1] (setting [2]) was above 10000 nM. At PDK1 (setting [3]), this molecule displayed a concentration for half-maximal inhibition (IC50) of 100 to 1000 nM.

Regarding `C[C@H](NC(=O)c1cc(C(F)(F)F)cnc1NCc1ccc(-c2cnc3[nH]c(=O)[nH]c3c2)cc1)c1ccc(F)c(F)c1` [Example 362, (S)-N-(1-(3,4-difluorophenyl)ethyl)-2-(4-(2-oxo-2,3-dihydro-1H-imidazo[4,5-b]pyridin-6-yl)benzylamino)-5-(trifluoromethyl)nicotinamide], the EC50 in test [1] (setting [4]) was below 1000 nM. On PDK1 (inhibition of PDK1 in vitro), this molecule registered a concentration for half-maximal inhibition (IC50) below 100 nM.

On to `Nc1ncnc2ccc(-c3cnc(CNc4ncccc4C(=O)NCc4ccc(F)c(F)c4)s3)cc12` [Ex. 7.1], for which the EC50 in test [1] (setting [2]) was 1000 to 10000 nM. On PDK1 (setting [3]), the IC50 was in the range of 100 to 1000 nM.

With `Cn1cnc2cnc3ccc(-c4ccc(CNc5ncccc5C(=O)NCc5ccc(F)c(F)c5)s4)cc3c21` [Example 2.24], the EC50 in test [1] (setting [2]) was below 1000 nM. At PDK1 (setting [3]), this molecule registered a 50% inhibitory concentration (IC50) below 100 nM.

Take `O=C(NCc1ccc(F)c(F)c1)c1cccnc1NCc1csc(-c2c[nH]c3ncccc23)n1` [Ex. 6.12, N-(3,4-difluorobenzyl)-2-({[2-(1H-pyrrolo[2,3-b]pyridin-3-yl)-1,3-thiazol-4-yl]-methyl}amino) pyridine-3-carboxamide]: the concentration giving a half-maximal response (EC50) in test [1] (setting [2]) was below 1000 nM. Also, the half-inhibitory concentration (IC50) at PDK1 (setting [3]) is below 100 nM.

As for `Nc1ncc(-c2ccc(CNc3ncc(C(F)(F)F)cc3C(=O)Nc3ccc(F)cc3)cc2)nc1CC1CCNC1` (centres unmarked) [Example 186, 2-[4-(5-Amino-6-pyrrolidin-3-ylmethyl-pyrazin-2-yl)-benzylamino]-N-(4-fluoro-phenyl)-5-trifluoromethyl-nicotinamide], the EC50 in test [1] (setting [4]) is below 1000 nM. The 50% inhibitory concentration (IC50) against PDK1 (inhibition of PDK1 in vitro) is below 100 nM.

For `C[C@H](NC(=O)c1cccnc1NCc1ccc(-c2cn3ccnc3cn2)s1)c1ccc(F)cc1` [Example 2.8, (S)-N-(1-(4-fluorophenyl)ethyl)-2-(((5-(imidazo[1,2-a]pyrazin-6-yl)thiophen-2-yl)methyl)amino)nicotinamide], the EC50 in test [1] (setting [2]) is above 10000 nM. Moreover, the half-maximal inhibitory concentration (IC50) at PDK1 (setting [3]) lay within 1000 to 5000 nM.

`Nc1n[nH]c2ncc(-c3ccc(CNc4ncc(C(F)(F)F)cc4C(=O)Nc4cccnc4)cc3)cc12` [Example 289, 2-(4-(3-amino-1H-pyrazolo [3,4-b]pyridin-5-yl)benzylamino)-N-(pyridin-3-yl)-5-(trifluoromethyl) nicotinamide]: in test [1] (setting [4]), the half-maximal effective concentration (EC50) was below 1000 nM. The molecule also came in with an IC50 against PDK1 (inhibition of PDK1 in vitro) below 100 nM.

For the molecule `C[C@H](NC(=O)c1nc(C#N)cnc1NCc1ccc(-c2cnc(N)c(N3CCNCC3)n2)cc1)c1ccc(F)c(F)c1` [Example 192, 3-[4-(3′-Amino-3,4,5,6-tetrahydro-2H-[1,2′]bipyrazinyl-6′-yl)-benzylamino]-6-cyano-pyrazine-2-carboxylic acid [(S)-1-(3,4-difluoro-phenyl)-ethyl]-amide], the half-maximal effective concentration (EC50) in test [1] (setting [4]) fell in the range of 1000 to 10000 nM. The same molecule gave an IC50 at PDK1 (inhibition of PDK1 in vitro) below 100 nM.

With `C[C@H](NC(=O)c1cc(C#N)cnc1NCc1ccc(-c2cnc(N)c(NCCN)n2)cc1)c1ccc(F)cc1` [Example 199, 2-{4-[5-Amino-6-(2-amino-ethylamino)-pyrazin-2-yl]-benzylamino}-5-cyano-N-[(S)-1-(4-fluoro-phenyl)-ethyl]-nicotinamide], the EC50 in test [1] (setting [4]) is below 1000 nM. Further, at PDK1 (inhibition of PDK1 in vitro), the half-inhibitory concentration (IC50) is below 100 nM.

`O=C(NCc1ccc(F)c(F)c1)c1ccccc1NCc1cccc(-c2c[nH]c3ncccc23)c1` [Example 1.20, 2-(3-(1H-pyrrolo[2,3-b]pyridin-3-yl)benzylamino)-N-(3,4-difluorobenzyl)benzamide]: the EC50 in test [1] (setting [2]) was 1000 to 10000 nM. For the same molecule, on PDK1 (setting [3]), the IC50 was below 100 nM.

For `N#Cc1cnc(NCc2ccc(-c3cnc(N)cn3)cc2)c(C(=O)NCc2cncc(F)c2)c1` [Example 312, 2-(4-(5-aminopyrazin-2-yl)benzylamino)-5-cyano-N-((5-fluoropyridin-3-yl)-methyl)nicotinamide], the half-maximal effective concentration (EC50) in test [1] (setting [4]) was below 1000 nM. The half-maximal inhibitory concentration (IC50) against PDK1 (inhibition of PDK1 in vitro) was below 100 nM.

Consider `C[C@H](NC(=O)c1cc(C#N)cnc1NCc1ccc(-c2cnc3[nH]nc(CN)c3c2)cc1)c1ccc(F)cc1` [Example 152, (S)-2-(4-(3-(aminomethyl)-1H-pyrazolo[3,4-b]pyridin-5-yl)benzyl-amino)-5-cyano-N-(1-(4-fluorophenyl)ethyl)nicotinamide], for which the EC50 in test [1] (setting [4]) fell in the range of 1000 to 10000 nM. The IC50 against PDK1 (inhibition of PDK1 in vitro) was below 100 nM.

For the molecule `Nc1ncnc2ccc(-c3ccc(CNc4ncccc4C(=O)NCc4ccccn4)s3)cc12` [Example 3.25, 2-({[5-(4-aminoquinazolin-6-yl)thiophen-2-yl]methyl}amino)-N-(pyridin-2-ylmethyl)pyridine-3-carboxamide (TFA salt)], in test [1] (setting [2]), the EC50 was above 10000 nM. The molecule further had an IC50 against PDK1 (setting [3]) of 1000 to 5000 nM.

Turning to `C[C@H](NC(=O)c1cc(C#N)cnc1N[C@H](CC(=O)N(C)C)c1ccc(-c2c[nH]c3ncnc(N)c23)cc1)c1ccc(F)cc1` [Example 48, 2-((R)-1-(4-(4 - amino-7H-pyrrolo[2,3-d]pyrimidin-5-yl)phenyl)-3-(dimethylamino)-3-oxopropylamino)-5-cyano-N-((S)-1-(4-fluorophenyl)ethyl)nicotinamide], the concentration for a half-maximal effect (EC50) in test [1] (Homo sapiens, PC-3, 2 h, inhibition of P308 Akt in PC-3 cells using MSD) is 1000 to 10000 nM. The 50% inhibitory concentration (IC50) against PDK1 (inhibition of PDK1 in vitro) is 100 to 1000 nM.

For `N#CCc1n[nH]c2ncc(-c3ccc(CNc4ncc(C(F)(F)F)cc4C(=O)Nc4ccc(F)cc4)cc3)cc12` [Example 157, 2-(4-(3-(cyanomethyl)-1H-pyrazolo[3,4-b]pyridin-5-yl)benzylamino)-N-(4-fluorophenyl)-5-(trifluoro-methyl)nicotinamide], in test [1] (setting [4]), the EC50 was below 1000 nM. The IC50 against PDK1 (inhibition of PDK1 in vitro) is below 100 nM.

In the case of `C[C@H](NC(=O)c1cccnc1NCc1ccc(-c2cnc3[nH]c(=O)[nH]c3c2)cc1)c1ccc(F)cc1` [Example 359, (S)-N-(1-(4-fluorophenyl)ethyl)-2-(4-(2-oxo-2,3-dihydro-1H-imidazo[4,5-b]pyridin-6-yl)benzylamino) nicotinamide], the EC50 in test [1] (setting [4]) was below 1000 nM. The same molecule yielded a half-inhibitory concentration (IC50) on PDK1 (inhibition of PDK1 in vitro) below 100 nM.

As for `C[C@@H](Nc1ncc(C(F)(F)F)cc1C(=O)Nc1ccc(F)cc1)c1ccc(-c2c[nH]c3ncnc(N)c23)cc1` [Example 433, 2-{(R)-1-[4-(4-Amino-7H-pyrrolo[2,3-d]pyrimidin-5-yl)-phenyl]-ethylamino}-N-(4-fluoro-phenyl)-5-trifluoromethyl-nicotinamide], in test [1] (setting [4]), the EC50 was 1000 to 10000 nM. Also, on PDK1 (inhibition of PDK1 in vitro), the half-maximal inhibitory concentration (IC50) was below 100 nM.

As to `C[C@H](NC(=O)c1cc(C#N)cnc1NCc1ccc(-c2cnc3[nH]ncc3c2)nc1)c1ccc(F)cc1` [Example 65, 5-Cyano-N-[(S)-1-(4-fluoro-phenyl)-ethyl]-2-{[6-(1H-pyrazolo[3,4-b]pyridin-5-yl)-pyridin-3-ylmethyl]-amino}-nicotinamide], the EC50 in test [1] (setting [4]) is below 1000 nM. Also, on PDK1 (inhibition of PDK1 in vitro), the 50% inhibitory concentration (IC50) was below 100 nM.

Take `O=C(NCc1ccc(F)c(F)c1)c1cccnc1N[C@@H](COc1ccc2[nH]c(=O)[nH]c2c1)c1ccccc1` [Example 16.1, (R)-N-(3,4-difluorobenzyl)-2-(2-(2-oxo-2,3-dihydro-1H-benzo[d]imidazol-5-yloxy)-1-phenylethylamino)nicotinamide]: the concentration for a half-maximal effect (EC50) in test [1] (setting [2]) was below 1000 nM. Further, the IC50 against PDK1 (setting [3]) is below 100 nM.

For the molecule `O=C(NCc1ccc(F)c(F)c1)c1cccnc1NCc1cnc(-c2c[nH]c3ncccc23)s1` [Ex. 6.10, N-(3,4-difluorobenzyl)-2-({[2-(1H-pyrrolo[2,3-b]pyridin-3-yl)-1,3-thiazol-5-yl]methyl}amino) pyridine-3-carboxamide], the EC50 in test [1] (setting [2]) lay within 1000 to 10000 nM. On PDK1 (setting [3]), this molecule yielded a 50% inhibitory concentration (IC50) of 100 to 1000 nM.

For `Nc1ncnc2ccc(-c3ccc(CNc4ncc(S(=O)(=O)N5CCCCC5)cc4C(=O)NCc4ccc(F)c(F)c4)s3)cc12` [Example 8.6.8, 2-(((5-(4-aminoquinazolin-6-yl)thiophen-2-yl)methyl)amino)-N-(3,4-difluorobenzyl)-5-(piperidin-1-ylsulfonyl) nicotinamide], in test [1] (setting [2]), the concentration for a half-maximal effect (EC50) was above 10000 nM. The same molecule returned a half-inhibitory concentration (IC50) against PDK1 (setting [3]) of 100 to 1000 nM.

Usually EC50 stands for the midpoint of the concentration-response curve. In general, IC50 refers to the point on the concentration scale where inhibition reaches its midpoint. High values mean lower potency, low ones higher potency.
